“Also recorded” adds a separate entry of the source. Like-named read-outs stand apart in the source and are kept apart here.
Assays:
[1] = tested on: Aedes Aegypsi (yellow fever mosquito); test: Median Effective Dose to repel Aedes aegypti, mosquito blood feeder; type: in vivo; details: Bandruche membrane, 37°, acetone formulation
Procedure: Median Effective Dose (ED50) is defined as the amount of chemical required to repel 50% of a target pest. […] The test system used was a mosquito blood feeder, which includes a constant temperature water circulator to warm the blood in the feeder, and the test cage. The blood was maintained at 37°. The blood feeder has five circular blood reservoirs, each of which is filled with outdated blood obtained from the Walter Reed Army Medical Center and certified safe according to Blood Bank testing procedures. The blood was replenished with adenosine triphosphate (ATP), without which the mosquitoes will not feed freely. The blood-filledreservoirs were covered with a Bandruche membrane (a standard membrane barrier). […] DEET was used as a positive control in a similar manner. A negative control formulation (water only) also was tested. The mosquitoes were given access to the blood reservoirs on a "free feeding" basis by means of a sliding door in the bottom of the test cage.

yellow fever mosquito = test: Application to clothing, treated stocking against yellow fever mosquito; type: in vivo, Aedes aegypti; details: cotton stocking, 3.3 g/ft^2
Procedure: HCA also was evaluated on treated cloth against the yellow fever mosquito. In these tests, women's mercerized-cotton stockings were used. […] The stocking was spread on a rack to dry and then hung indoors on a line. The first tests were done 24 hours after treatment. The treated stocking was drawn over the arm, with the treated portion midway on the forearm. The untreated hand was protected with a glove and the stocking-covered arm was exposed for one minute in a testcage. If 5 bites were received, the treatment was considered ineffective. If less than 5 bites were received; the exposures were continued daily until the 14th day and at weekly or biweekly intervals thereafter.

rats = details: rat, in vivo; cited from earlier work
human subjects [2] = details: 12% in petrolatum, 48 hour closed patch; cited from earlier work
human subjects [3] = details: 20% in diethylphthalate, 100 human subjects; cited from earlier work
human = details: cited from earlier work
[4] = tested on: eczema and dermatitis patients; details: human, in vivo; cited from earlier work
[5] = tested on: malaria mosquito (Anopheles quadrimaculatus Say); test: Direct skin application, protection time against malaria mosquito; type: in vivo; details: 1 ml 100% HCA on forearm
Procedure: (§1) A glove was worn to protect the untreated hand while the treated forearm was exposed in a cage containing a high number (2,000-4,000) of unfed mosquitoes for 3 minutes at intervals of approximately 30 minutes until two bites were received (two bites in one test period or one bite in each of two consecutive test periods). The time interval between application and when two bites were received was defined as the "protection time." The repellent classes based on protection time (minutes) are listed below: […]

[6] = tested on: yellow fever mosquito (Aedes aegypti (L)); test: Direct skin application, protection time against yellow fever mosquito; type: in vivo; details: 1 ml 100% HCA on forearm
Procedure: as §1

[7] = tested on: patients sensitive to 2% cinnamaldehyde; details: human, in vivo; cited from earlier work
[8] = cited from earlier work
[9] = cited from earlier work; remark: listed apart in the source
[10] = tested on: Western Flower Thrips (Thysanoptera); test: Repellency to Western Flower Thrips on alfalfa inflorescence; type: in vivo; details: 2% coniferyl aldehyde, 1% Tween 80
Source text: Western Flower Thrips (Thysanoptera) were collected in the field on infested alfalfa (Medicago sativa). Alfalfa inflorescence were cut then dipped in either a coniferyl aldehyde formulation (2% coniferyl aldehyde, 1% Tween 80) or a water control, then were placed in an experimental arena (approximately 9 cm in diameter by 6 centimeter in height) on a Whatman filter paper disk covering the floor of the arena. Approximately fifty (50) to sixty (60) insects were aspirated into the experimental arena which was then covered with a transparent lid. […] Repellency was determined by the relative number of individuals who successfully maintained feeding and colonization on the inflorescence over time.

[11] = 25° C.; cited from earlier work
[12] = 33% DEET; cited from earlier work
[13] = tested on: grape phylloxera (Daktulosphaira vitifoliae Fitch); test: Treatment of grapevine leaves for control of root forms of grape phylloxera; type: in vivo; details: for Number of Phylloxera on 6 root sections, Eggs: water 52; for Number of Phylloxera on 6 root sections, 1st instar / Number of Phylloxera on 6 root sections, 2nd instar / Number of Phylloxera on 6 root sections, 3rd instar: water 7; for Number of Phylloxera on 6 root sections, 4th instar: water 13; for Number of Phylloxera on 6 root sections, Adults: water 16
Procedure: The root form of grape phylloxera (Daktulosphaira vitifoliae Fitch) is arguably the most devastating grape insect world wide. In this experiment, cinnamic aldehyde formulated with 1% Tween 80 was tested for ability to control phylloxera. One year old potted V. vinifera cultivar merlot plants were used that had been obtained from Foundation Plant Material Service, University of California, Davis. The plants were potted in 10 cm diameter ports and were infested with phylloxera 5 weeks prior to treatment. At the time of spraying, plant pots were placed in a plastic bag so that chemical runoff from the leaf sprays would not drip into the soil. Spray was applied to runoff with a household 1 liter-capacity plastic spray bottle. Plants were allowed to air dry outside and then replaced in the greenhouse. At intervals thereafter, the roots were separated from the potting mix and total phylloxera population estimated.
Roots from plants at 5 weeks post-treatment were excised and 6 root sections, about 3 mm diameter by 4 cm length were cleaned of infestations and used in a bioassay. For this bioassay, root sections were inoculated with 20 eggs and the roots maintained as the colonies were maintained. After 25 days, the number of individuals of each age class were counted.

Compound: CCCCCCC(C=O)=Cc1ccccc1 [HCA, 2-(phenylmethylene) octanal]
- Median Effective Dose (ED50) [1]: 0.0031 mg/cm^2
- duration of effectiveness on treated cloth (yellow fever mosquito): more than 10 days
- protection time grade on treated cloth (yellow fever mosquito): 4 (effective for more than 10 days)
- oral LD50 (rats): 3100 mg/kg
- irritation (human subjects [2]): no irritation
- positive reactions, repeated insult patch test (human subjects [3]): no positive reactions
- human maximization test result (human; in vivo): negative
- patch test positive results out of 100 [4]: 0
- protection time [5]: 31 to 60 min
- repellent class based on protection time ([5]; USDA rating scale): 2 (31-60)
- protection time [6]: 121 to 180 min
- repellent class based on protection time ([6]; USDA rating scale): 3 (121-180)
- patients found to be sensitive [7]: none
- dermal LD50 [8]: greater than 3 g/kg

Compound: CCCC(O)C(CC)CO (stereo not shown) [ethyl hexanediol]
- adverse effects ([9]; basis of 1991 EPA cancellation of registrations): possible adverse effects of the compound on fetal development

Compound: COc1cc(/C=C/C=O)ccc1O [Coniferyl Aldehyde, coniferyl aldehyde]
- Number of insects on inflorescence (colonization and feeding) ([10]; about 50-60 insects, 30 min, water control 22(alive)): 2(dead)
- Description of insect behavior ([10]; control tranquil, normal flight, feeding): Irritated by treatment; also recorded: extreme agitation; also recorded: frequent flying. No
- Length of insect residence time on inflorescence ([10]; max, water control 30 minutes): ≤ 15 s

Compound: CCN(CC)C(=O)c1cccc(C)c1 [DEET, N,N-diethyl-1,3-methylbenzamide]
- Median Effective Dose (ED50) [1]: 0.0124 mg/cm^2
- vapor pressure [11]: 167×10^-5 mm Hg
- duration of protection [12]: 10 to 14 h
- adverse effects ([9]; repeated use on skin in high concentrations): can cause allergic and toxic effects

Compound: O=C/C=C/c1ccccc1 [cinnamic aldehyde]
- Number of Phylloxera on 6 root sections, Eggs ([13]; 300 ppm, 1% Tween 80, roots 5 weeks post-treatment, 25 days): 16
- Number of Phylloxera on 6 root sections, 1st instar ([13]; 300 ppm): 0
- Number of Phylloxera on 6 root sections, 2nd instar ([13]; 300 ppm): 6
- Number of Phylloxera on 6 root sections, 3rd instar ([13]; 300 ppm): 5
- Number of Phylloxera on 6 root sections, 4th instar ([13]; 300 ppm): 0
- Number of Phylloxera on 6 root sections, Adults ([13]; 300 ppm): 4
- Number of Phylloxera on 6 root sections, 1st instar ([13]; 1000 ppm): 0
- Number of Phylloxera on 6 root sections, 2nd instar ([13]; 1000 ppm): 1
- Number of Phylloxera on 6 root sections, 3rd instar ([13]; 1000 ppm): 4
- Number of Phylloxera on 6 root sections, 4th instar ([13]; 1000 ppm): 2
- Number of Phylloxera on 6 root sections, Adults ([13]; 1000 ppm): 1
- Number of Phylloxera on 6 root sections, Eggs ([13]; 1000 ppm): 2
- Number of Phylloxera on 6 root sections, 1st instar ([13]; 3000 ppm): 0
- Number of Phylloxera on 6 root sections, 2nd instar ([13]; 3000 ppm): 2
- Number of Phylloxera on 6 root sections, 3rd instar ([13]; 3000 ppm): 1
- Number of Phylloxera on 6 root sections, 4th instar ([13]; 3000 ppm): 1
- Number of Phylloxera on 6 root sections, Adults ([13]; 3000 ppm): 0
- Number of Phylloxera on 6 root sections, Eggs ([13]; 3000 ppm): 0
- Number of Phylloxera on 6 root sections, 1st instar ([13]; 10,000 ppm): 0
- Number of Phylloxera on 6 root sections, 2nd instar ([13]; 10,000 ppm): 2
- Number of Phylloxera on 6 root sections, 3rd instar ([13]; 10,000 ppm): 0
- Number of Phylloxera on 6 root sections, 4th instar ([13]; 10,000 ppm): 0
- Number of Phylloxera on 6 root sections, Adults ([13]; 10,000 ppm): 0
- Number of Phylloxera on 6 root sections, Eggs ([13]; 10,000 ppm): 0
- duration of resistance of excised roots to phylloxera reinfestation ([13]; after foliage treatment): at least 5 weeks
- feeding sites after foliage treatment ([13]; foliage of whole plants treated): Vacant feeding sites were seen
- human maximization test result (human; literature data, Jimbo (1983)): positive reaction
